Data set [1] can be described thus: Excipient compatibility study. Type of data set: physicochemical. Particulars: 2 Week 40° C./75% RH, closed vial. As for the experimental part: Analyses were conducted at t=0, 2, 4 and 8 weeks for appearance, assay, and related substances for samples stored in closed vials at 25° C./60% RH and 40° C./75% RH.
Excipient Compatibility Sample Mixtures: The excipients and API were dispensed individually by weight into 20 mL clear borosilicate (type I) glass vials to fill the appropriate weights as listed in Table 12. Table 12 lists mixtures of API with varied excipients and a stand-alone control sample of API alone. Each excipient mixture sample preparation was conducted using a clean spatula to mix the vial ingredients for 30-60 seconds. Each vial was properly labeled with the description and storage conditions. One vial was used for testing at the initial (t=0) time point. Three vials, closed, were placed at each storage condition to allow sampling at each time point and one vial, closed, was placed at each storage condition for overage.

The target in the next data set is 168 GPCRs (Homo sapiens, UniProt P41231). Description: β-arrestin GPCR screen (PathHunter/GPCRmax), antagonist mode. Particulars: GPCR P2RY2; Antagonist mode; 10 uM.
Sequence of 168 GPCRs (P41231 whole entry): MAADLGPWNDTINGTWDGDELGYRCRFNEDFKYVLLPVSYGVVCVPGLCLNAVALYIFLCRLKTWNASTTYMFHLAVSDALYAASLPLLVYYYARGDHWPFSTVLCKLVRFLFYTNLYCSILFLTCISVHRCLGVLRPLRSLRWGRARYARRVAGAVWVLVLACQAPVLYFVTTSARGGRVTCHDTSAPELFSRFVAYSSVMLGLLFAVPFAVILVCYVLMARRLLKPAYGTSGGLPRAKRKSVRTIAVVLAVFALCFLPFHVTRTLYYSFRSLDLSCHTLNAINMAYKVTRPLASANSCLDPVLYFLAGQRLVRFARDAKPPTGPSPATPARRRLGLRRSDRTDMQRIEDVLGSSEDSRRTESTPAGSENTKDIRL
Data set [2] deals with T1, serotonin transporter (SERT) (Rattus norvegicus, UniProt P31652).
T1 construct: from tissue; synaptosomes for uptake and release
T1 sequence (P31652 whole entry): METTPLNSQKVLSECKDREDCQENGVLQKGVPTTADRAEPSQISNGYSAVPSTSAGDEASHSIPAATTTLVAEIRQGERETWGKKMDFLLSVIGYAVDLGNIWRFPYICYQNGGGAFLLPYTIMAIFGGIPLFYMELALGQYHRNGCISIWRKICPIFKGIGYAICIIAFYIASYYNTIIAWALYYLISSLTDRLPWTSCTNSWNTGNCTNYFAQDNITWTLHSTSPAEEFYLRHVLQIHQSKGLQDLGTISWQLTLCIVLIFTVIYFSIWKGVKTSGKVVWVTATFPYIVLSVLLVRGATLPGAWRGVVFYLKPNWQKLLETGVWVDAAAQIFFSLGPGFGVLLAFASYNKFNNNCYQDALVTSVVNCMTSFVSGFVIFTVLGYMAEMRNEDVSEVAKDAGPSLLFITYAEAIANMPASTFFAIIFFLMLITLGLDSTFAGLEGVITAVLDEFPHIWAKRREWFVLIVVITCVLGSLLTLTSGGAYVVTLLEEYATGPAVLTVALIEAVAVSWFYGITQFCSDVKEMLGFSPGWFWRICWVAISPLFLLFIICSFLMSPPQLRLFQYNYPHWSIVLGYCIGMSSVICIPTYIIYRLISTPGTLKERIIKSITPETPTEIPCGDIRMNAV
Description: Competitive radioligand binding, [3H]citalopram, rat brain lysates. As for the experimental part:
(§1) Radioligands used were: [^3H] Citalopram (PerkinElmer NET1039250UC); [^3H] Nisoxetine (PerkinElmer NET1084250UC); [^3H] WIN35428 (PerkinElmer NET1033250UC). […] Rat brains were dissected and tissue was homogenized in cold lysis buffer, centrifged at 100×g for 2 min and the supernatant was placed in a fresh tube. Supernatant was centrifuged at 13,000×g for 10 min at 4° C. to re-pellet the cell lysate. The pellet was resuspended in fresh wash buffer (50 mM Tris-HCl; 5 mM MgCl2; 5 mM EDTA) and centrifuged a third time. The pellet was then resuspended in wash buffer containing 10% sucrose as a cryoprotectant, divided into aliquots (0.3 mL) and stored at −80° C. A sample of the homogenate was analyzed for protein content using the SIGMA® BCA assay. On the day of the assay, the membrane preparation was thawed, and the pellet resuspended in final assay buffer. […] To each well was added 150 μL membranes, 50 μL of non-specific compound or buffer and 50 μL radioligand solution in buffer. […] Ki was subsequently calculated using the Cheng-Prusoff equation.

The target of data set [3] is norepinephrine transporter (NET) (Rattus norvegicus, UniProt Q63380). The experiment in a line: Competitive radioligand binding, [3H]nisoxetine, rat brain lysates. How it is done: as §1
Sequence of norepinephrine transporter (NET) (Q63380 1-617): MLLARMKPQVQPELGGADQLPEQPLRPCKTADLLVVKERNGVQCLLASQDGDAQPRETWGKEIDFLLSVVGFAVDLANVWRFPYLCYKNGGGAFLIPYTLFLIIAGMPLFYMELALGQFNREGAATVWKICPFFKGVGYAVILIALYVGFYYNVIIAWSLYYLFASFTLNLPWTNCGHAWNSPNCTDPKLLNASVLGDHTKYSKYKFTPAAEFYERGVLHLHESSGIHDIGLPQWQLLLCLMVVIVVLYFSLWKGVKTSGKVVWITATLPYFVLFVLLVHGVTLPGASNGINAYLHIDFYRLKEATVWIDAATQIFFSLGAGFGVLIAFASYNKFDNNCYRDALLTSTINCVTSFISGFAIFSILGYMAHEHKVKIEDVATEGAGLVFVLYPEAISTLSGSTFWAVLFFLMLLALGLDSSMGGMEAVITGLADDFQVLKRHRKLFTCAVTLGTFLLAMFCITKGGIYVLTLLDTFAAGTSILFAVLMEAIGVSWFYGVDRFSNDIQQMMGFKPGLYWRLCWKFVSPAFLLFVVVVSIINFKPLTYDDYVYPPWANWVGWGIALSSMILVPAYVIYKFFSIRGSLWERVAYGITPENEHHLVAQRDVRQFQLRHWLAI
For data set [4], the target named is T2, dopamine transporter (DAT) (Rattus norvegicus, UniProt P23977).
T2 construct: from tissue; synaptosomes for uptake and release
T2 sequence (P23977 whole entry): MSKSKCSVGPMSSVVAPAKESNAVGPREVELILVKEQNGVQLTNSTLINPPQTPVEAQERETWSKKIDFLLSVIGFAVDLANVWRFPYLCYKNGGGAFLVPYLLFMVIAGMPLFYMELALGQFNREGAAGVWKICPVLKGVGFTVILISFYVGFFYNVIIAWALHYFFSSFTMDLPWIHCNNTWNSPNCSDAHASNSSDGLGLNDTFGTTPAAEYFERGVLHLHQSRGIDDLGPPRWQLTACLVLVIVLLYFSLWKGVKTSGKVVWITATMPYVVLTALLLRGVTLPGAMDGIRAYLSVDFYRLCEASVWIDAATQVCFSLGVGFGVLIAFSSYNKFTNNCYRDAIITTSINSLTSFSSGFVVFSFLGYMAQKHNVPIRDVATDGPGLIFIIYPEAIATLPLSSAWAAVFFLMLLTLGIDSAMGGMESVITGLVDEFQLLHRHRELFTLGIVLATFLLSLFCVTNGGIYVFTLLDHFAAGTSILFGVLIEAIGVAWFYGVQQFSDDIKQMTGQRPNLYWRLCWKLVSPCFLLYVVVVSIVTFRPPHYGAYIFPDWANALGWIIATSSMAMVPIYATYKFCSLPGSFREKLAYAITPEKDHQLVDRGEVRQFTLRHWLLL
Description: Competitive radioligand binding, [3H]WIN35428, rat brain lysates. How it is done: as §1

SMILES strings stand for the structures.

The Ki is a dissociation constant, usually derived from enzyme kinetics or from competition with a known ligand.

Regarding `CNC(C)C(=O)c1ccc2c(c1)OCO2` (centres unmarked) [methylone, 3,4-methylenedioxy-N-methylcathinone], the “Assay (% Recovery)” value in data set [1] worked out at 99.0 % Recovery. In addition, the activity at 10 µM on 168 GPCRs is about 1%. The Ki in data set [2] stood at 4.15 µM; in data set [3], 1.15 µM; in data set [4], 5.73 µM.

Values taken from patent US20250332139A1, “PS[…] AND THEIR USE FOR TREATING […] AND NE[…] DISORDERS” (Transcend Therapeutics, Inc., priority 2021, published 2025).
